# How the values were obtained:
# isolated rat heart = assay: Free radical (ESR) and lipid peroxidation (MDA-TBA) measurements in isolated rat heart; conditions: 1 μM
# Procedure: To evaluate the effect of 1 μM TRO40303 on ischemia-reperfusion-induced ascorbate release and tissue depletion, effluents from control and treated hearts undergoing the perfusion protocol described above (n = 6/group) were collected for 15 s, 1 min following onset of reflow, and hearts were frozen in liquid nitrogen at the end of the reperfusion period. Ascorbate content in effluents and tissue homogenates was then assessed by quantifying the ascorbyl free radical (AFR)-dimethyl sulfoxide (DMSO) electron spin resonance (ESR) doublet as previously described, DMSO being used to stabilize the ascorbate free radical.
# To investigate whether TRO40303 could interfere with ischemia-reperfusion-triggered ROS production, hearts (n = 6) undergoing the perfusion protocol described above received the spin trap nitrone DMPO (25 mM) during the first 5 min of reperfusion. A 15-s collection of the effluents was performed pre-ischemically on three additional hearts from both groups, and 3 min after onset of reflow for the 6 ischemic/reperfused hearts. Samples were immediately stored in liquid nitrogen. The free radical content of DMPO-supplemented from TRO40303-treated and control effluents was determined by ESR in glass capillaries. The ESR signal was acquired 1.5 min after thawing of the sample using the same parameters as for ascorbate except: modulation amplitude 0.0313 mT, receiver gain 5 × 10^4 and sweep rate for each scan 0.167 mT/s.
# Lipid peroxidation in heart tissue at the end of reperfusion was evaluated using the malondialdehyde-thiobarbituric acid assay (MDA-TBA) (n = 8/group) as previously described.
# [1] = tested on: healthy male and post-menopausal female subjects; assay: Phase I trial safety and tolerability; format: in vivo; conditions: human
# Procedure: A randomized, double-blind, placebo controlled study was performed to investigate the safety, tolerability and pharmacokinetics of single i.v. ascending doses of TRO40303 in healthy male and post-menopausal female subjects. The choice of the dose and flow rate escalation process is explained in the Result section. Seventy-two healthy volunteers were randomized, with 18 receiving a placebo and 54 an active liposomal formulation containing 20 mg/mL TRO40303 at final doses ranging from 0.5, 1, 2, 3.5, 6, 10 to 13 mg/kg with escalating flow rates from 0.04 mL/min to 35 mL/min. Within each group, 3 or 6 subjects received TRO40303 and 1 or 2 subjects received the same volume of placebo. The sample size was based on the number of doses and flow rates to be investigated. The 6 verum/2 placebo ratio per group is widely used in single ascending dose studies and provides adequate safety and pharmacokinetic information. The 3 verum/1 placebo ratio used in the last groups was chosen only to explore additional flow rates at previously studied doses.
# Continuous recording of adverse events, continuous blood pressure monitoring for 2 hours after dosing and 12-lead electrocardiogram (ECG) at pre-dose, 15 min, 1 h, 4 h, 8 h, 24 h, 72 h and 96 h after end of infusion were performed. Vital signs, physical examination, haematology, blood biochemistry, urinalysis and haemostasis were performed before the study, at specific times after dosing and at the “end of study visit”, 7 days after administration. Blood biochemistry analysis included ASAT, ALAT, alkaline phosphatase, triglycerides, total cholesterol, HDL-cholesterol and LDL-cholesterol.
# [2] = Solubility in formulation vehicle; format: physicochemical; conditions: in Intralipid® 30 (IL30), concentrations up to
# [3] = tested on: myocardial infarction model in rats; set-up: method as in PMID 20215409; conditions: rat myocardial infarction model, 2.5 mg/kg formulated in HPBCD; cited from earlier work
# [4] = 0.5 mg/kg, 0.08 mL/min, back pain
# [5] = 2 mg/kg, 0.64 mL/min, injection site haematoma
# [6] = 3.5 mg/kg, 5 mL/min, presyncope
# [7] = 6 mg/kg, 7.5 mL/min, infusion site inflammation
# [8] = 6 mg/kg, 23 mL/min, vision blurred
# [9] = single i.v. 0.5-13 mg/kg, flow rates 0.04-35 mL/min
smiles,measurement,setting,value
"CC(C)CCC[C@@H](C)[C@H]1CC[C@H]2[C@@H]3CC/C(=N\O)[C@](C)(CCCO)[C@H]3CC[C@]12C [TRO40303, 3,5-seco-4-nor-cholestan-5-one oxime-3-ol]",decrease of DMPO-OH ESR signal intensity in coronary effluents,"isolated rat heart; 25 mM DMPO at reperfusion, 3 min after onset of reflow, p < 0.05, n = 6",69%
same,AFR-DMSO release in the coronary effluents versus untreated hearts,"isolated rat heart; early reperfusion (1st min), p < 0.001, n = 6",–57%
same,tissue AFR-DMSO versus untreated hearts,"isolated rat heart; end of reflow, p < 0.05, n = 6",+24%
same,MDA-TBA formation compared to vehicle-perfused hearts,"isolated rat heart; heart tissue at end of reperfusion, p < 0.01, n = 8",–65%
same,Emergent AEs: Description,"[1]; 0.5 mg/kg, 0.08 mL/min",2 episodes of back pain
same,Emergent AEs: Intensity,[1]; [4],1 Moderate and 1 Mild
same,Emergent AEs: Relationship,[1]; [4],Excluded
same,Emergent AEs: Description,"[1]; 2 mg/kg, 0.64 mL/min",1 episode of injection site haematoma
same,Emergent AEs: Intensity,[1]; [5],Moderate
same,Emergent AEs: Relationship,[1]; [5],Excluded
same,Emergent AEs: Description,"[1]; 3.5 mg/kg, 5 mL/min",1 episode of presyncope
same,Emergent AEs: Intensity,[1]; [6],Moderate
same,Emergent AEs: Relationship,[1]; [6],Unlikely
same,Emergent AEs: Description,"[1]; 6 mg/kg, 7.5 mL/min",1 episode of infusion site inflammation
same,Emergent AEs: Intensity,[1]; [7],Moderate
same,Emergent AEs: Relationship,[1]; [7],Probable
same,Emergent AEs: Description,"[1]; 6 mg/kg, 23 mL/min",1 episode of vision blurred
same,Emergent AEs: Intensity,[1]; [8],Moderate
same,Emergent AEs: Relationship,[1]; [8],Possible
same,"changes in vital signs, ECG parameters, laboratory tests or physical examinations","[1]; any time, any dose group",No relevant changes
same,clinical tolerability,[1]; [9],well tolerated clinically
same,serious adverse events,[1]; [9],no serious adverse events
same,solubility,[2],~ 6 mg/mL
same,reduction of infarct size,[3],38%

# Reference: article PMC3923730 (Journal of Translational Medicine, 2014)
